Measurements taken from patent US20230416299A1, “COMPOUND AND METHOD FOR THE TREATMENT AND DIAGNOSIS OF NEURODEGENERATIVE CONDITIONS” (Swansea University, priority 2013, published 2023).

Columns and labels:
Lxrα = biological target: T1, Lxrα (Homo sapiens, UniProt Q13133); assay: Lxr-responsive luciferase reporter assay (Lxre + Lxrα) in SN4741 neural cells; format: cell-based, mouse; conditions: 10 μM, 24 h
T1 construct: expressed in transfected cells; host or cells: SN4741 mouse neuronal cell line
T1 sequence (Q13133 1-447): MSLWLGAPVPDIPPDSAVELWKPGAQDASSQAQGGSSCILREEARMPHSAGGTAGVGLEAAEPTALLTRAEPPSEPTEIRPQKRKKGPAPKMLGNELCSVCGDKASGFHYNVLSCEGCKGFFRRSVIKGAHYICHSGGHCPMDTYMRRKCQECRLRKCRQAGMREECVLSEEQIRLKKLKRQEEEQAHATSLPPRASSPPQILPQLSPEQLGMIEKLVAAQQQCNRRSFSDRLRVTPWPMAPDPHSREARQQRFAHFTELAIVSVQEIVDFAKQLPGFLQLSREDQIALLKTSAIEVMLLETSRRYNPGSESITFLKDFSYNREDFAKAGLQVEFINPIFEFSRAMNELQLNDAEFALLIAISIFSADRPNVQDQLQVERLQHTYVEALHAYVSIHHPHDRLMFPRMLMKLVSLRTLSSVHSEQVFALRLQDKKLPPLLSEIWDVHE
From the text: (§1) Luciferase Reporter Assay.

[1] = test system: Abca1, Abcg1 and Srebf1 transcript levels; assay: Quantitative PCR of Lxr target genes in SN4741 cells; format: cell-based, mouse; conditions: SN4741 cells treated 3 h
Description: (§2) Quantitative PCR. Total RNA was extracted from SN4741 cells and zebrafish treated with the compounds of interest using the RNeasy Mini Kit (Qiagen), 1 μg was treated with RQ1 RNase-free DNase (Promega) and reverse transcribed using Superscript II Reverse Transcriptase (Invitrogen) and random primers (Invitrogen) (RT+ reaction). Parallel reactions without reverse transcriptase enzyme were done as a control (RT− reaction), and Sybergreen real-time quantitative PCR assays were performed. Expression levels were obtained by normalization with the value of the housekeeping gene encoding actin obtained for every sample in parallel assays.

[2] = test system: mouse E11.5 brain primary cultures; assay: Mouse E11.5 brain primary cultures (Islet1+, active caspase 3+, BrdU, Nkx6.1 counts); format: cell-based; conditions: for Number of Islet1+ cells: 3 DIV; for Number of active caspase-3+ cells: 10 μM 3β,7α-diHCA, 3βH,7O-CA, 25-HC, low concentrations of 3β,7β-diHCA, 3β-HCA
Description: Primary Brain Cultures. Brains from E11.5 mice were manually dissected, plated on poly-D-lysine (150,000 cells/cm2) and grown in serum-free N2 media consisting of 1:1 mixture of F12 and DMEM with 10 ng/mL insulin, 100 μg/mL apo-transferrin, 100 μM putrescine, 20 nM progesterone, 30 nM selenium, 6 mg/mL glucose, and 1 mg/mL BSA. Cells were treated for 3 days in vitro (DIV) with the compounds of interest, fixed with 4% PFA and processed for staining using appropriate antibodies.
For BrdU analysis, cells were treated with BrdU one hour after plating and media was replaced with fresh medium after 16 h. After a further 2 days in culture, cells were treated for 30 min with 2N HCl and then immunocytochemistry was performed to evaluate the number of double BrdU+;Islet1+ cells (a measure of motor neuron neurogenesis). Hoechst staining was performed by permeabilizing cells with a 0.3% Triton-X 100/PBS solution for 5 min followed by incubation with Hoechst 33258 (Sigma) for 10 min.
Antibodies and Detection Procedures. Cells were fixed in 4% PFA, washed in PBS and blocked in 5% normal goat serum/PBS for 1 h at room temperature. Primary antibodies were diluted in PBS (pH 7.4), 0.3% Triton X-100, 1% BSA and incubations were carried out overnight at +4° C. or at room temperature for 2 h. The antibodies used were anti-: BrdU (1:400; Abeam), Islet-1 (1:100; Developmental Studies Hybridoma Bank), cleaved caspase-3 (Asp175) (1:100; Cell Signaling Technology), tyrosine hydroxylase (TH;1:1000; Pel-Freeze) GABA (1:1,000; Sigma), Brn3a (1:250; Millipore), Nkx6.1 (1:200; Novus Biologicals), choline acetyltransferase (ChAT; 1:500; Millipore) and appropriate secondary antibodies (Jackson ImmunoResearch or Alexa). Cells positive for the corresponding marker were counted directly at the microscope at a magnification of 20 x. Cells were counted in every well, in eight consecutive fields (going from one side of the well to the other, passing through the center), in three different wells per experiment and in three different experiments per condition. Random pictures of the wells were taken for every condition to document the result, and representative pictures were subsequently selected to represent the quantitative data. Photos were acquired with a Zeiss Axioplan microscope and a Hamamatsu camera C4742-95 using the Openlab software.

[3] = test system: Islet-1:GFP transgenic zebrafish embryos; format: in vivo
Description: as §2
Zebrafish Strain and Mainrenance Zebrafish were raised on a 14/10 h day/night cycle and were kept at 28.5° C. Islet-1:GFP transgenic embryos were obtained via natural spawning and staged in hours or days post fertilization (hpf and dpf) according to Kimmel et al). Embryos older than 24 hpf were treated with 0.03% phenylthiourea (PTU) to inhibit pigmentation. MO injections were performed using splice site specific zebrafish 1xr MO. MO injected embryos were immediately dechorionated and transferred to a 96 well plate and exposed to dimethyl sulfoxide (DMSO) treated or ligand treated medium.
Compound Exposure. Islet-1:GFP embryos were collected by natural mating and immediately (at 1 cell stage) dechorionated and transferred to a 96 well plate. Each of the compounds tested were obtained as 10 mM stock and diluted in embryo medium to a final concentration of 10 μM, and 200 μL was added to each well. DMSO or propan-2-ol treated embryo medium was taken as control. Ligand solutions were replaced every 12 h with fresh ligand solution prepared in PTU treated embryo medium. Embryos were collected at 48 hpf, fixed for 4 h at room temperature with 4% paraformaldehyde and then washed and kept in PBST. Immunocytochemistry was performed using an anti-GFP antibody and fluorescence was viewed and photographed using a Zeiss Axioplan compound microscope and a Zeiss Axiocam digital camera.

Lxrβ = biological target: T2, Lxrβ (Homo sapiens, UniProt P55055); assay: Lxr-responsive luciferase reporter assay (Lxre + Lxrβ) in SN4741 neural cells; format: cell-based, mouse; conditions: for Lxrβ activation, luciferase activity: SN4741 cells, 10 μM, 24 h; for Lxrβ activational capacity in combination with 22R-HC: acid 10 μM + 22R-HC 10 μM
T2 construct: expressed in transfected cells; host or cells: SN4741 mouse neuronal cell line
T2 sequence (P55055 1-460): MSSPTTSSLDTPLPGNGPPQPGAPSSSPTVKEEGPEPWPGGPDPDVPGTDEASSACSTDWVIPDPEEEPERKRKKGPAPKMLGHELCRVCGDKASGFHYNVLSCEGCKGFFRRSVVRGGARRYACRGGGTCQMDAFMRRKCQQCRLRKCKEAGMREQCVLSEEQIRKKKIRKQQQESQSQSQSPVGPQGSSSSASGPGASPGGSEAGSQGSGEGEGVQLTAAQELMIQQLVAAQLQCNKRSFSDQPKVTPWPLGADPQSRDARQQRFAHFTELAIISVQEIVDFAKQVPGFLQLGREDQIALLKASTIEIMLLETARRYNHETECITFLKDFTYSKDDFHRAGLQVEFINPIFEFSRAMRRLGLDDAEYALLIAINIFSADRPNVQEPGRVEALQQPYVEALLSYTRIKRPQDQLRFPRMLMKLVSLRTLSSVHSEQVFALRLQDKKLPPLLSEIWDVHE
From the text: as §1

CC(CCC[C@@H](C)[C@H]1CC[C@H]2[C@@H]3[C@H](O)C=C4C[C@@H](O)CC[C@]4(C)[C@H]3CC[C@]12C)C(=O)O (stereo partly drawn) [3β,7α-diHCA, 3β,7α-dihydroxycholest-5-en-26-oic acid]
Lxrα activation, luciferase activity (Lxrα): have the ability to activate both Lxrs | Abca1, Abcg1 and Srebf1 transcript levels [1]: increased transcripts levels to a similar degree as 22R-HC | Number of Nkx6.1+ progenitor cells [2]: did not affect the number of Nkx6.1+ progenitor cells | Number of other midbrain neurons (TH+ dopamine, GABAergic, red nucleus) [2]: did not affect the number of other midbrain neurons | Reduction of neuronal cell death (activated caspase 3) induced by 2 μM 3β,7β-diHCA or 3β-HCA ([2]; 10 μM): reduced the neuronal cell death | Rescue of loss of Islet1+ cells induced by 2 μM 3β,7β-diHCA or 3β-HCA ([2]; 10 μM): reversed the loss of Islet 1+ cells | Effect on active caspase-3+ cells with GGPP ([2]; GGPP 10 μM, 3β,7β-diHCA, 3β-HCA at 2 μM): completely blocked by co-incubation with the Lxr inhibitor GGPP | Number of Islet1+ cells ([2]; wild type cultures): increased the number of Islet1+ oculomotor cells in the cultures | Concentration with significant difference (p<0.05) from vehicle in number of Islet1+ cells ([2]; wild type cultures, dose response): ≥ 5 µM | Effect on Islet1+ cells with Lxr antagonist GGPP ([2]; wt cultures, GGPP 10 μM): blocked by the Lxr antagonist GGPP | Number of active caspase-3+ cells ([2]; wt cultures): decreased the number of active caspase-3+ cells | Islet-1 mRNA and protein level (qPCR, western blot) ([3]; 10 μM): increase in the level of Islet-1 mRNA and protein | abca1 mRNA expression in vivo ([3]; 10 μM): enhanced expression of abca1 | Islet-GFP expression in cranial nerves ([3]; 10 μM, 48 hpf): increased Islet-GFP expression | Number of Islet1+ cells in cranial nerves (III, IV, V, VII, X) ([3]; 10 μM, 48 hpf): no significant effect on the number of Islet1+ cells | Islet-GFP levels after lxr morpholino (MO) injection ([3]; 10 μM, lxr MO vs control scrambled MO): abolished the in vivo increase in Islet-GFP levels | Lxrβ activation, luciferase activity (Lxrβ): have the ability to activate both Lxrs | Lxrβ activational capacity in combination with 22R-HC (Lxrβ): No additive effect was observed

CC(CCC[C@@H](C)[C@H]1CC[C@H]2[C@@H]3CC=C4C[C@@H](O)CC[C@]4(C)[C@H]3CC[C@]12C)C(=O)O (stereo partly drawn) [3β-HCA, 3β-hydroxycholest-5-en-26-oic acid]
Lxrα activation, luciferase activity (Lxrα): activates Lxr | Abca1, Abcg1 and Srebf1 transcript levels [1]: induced transcription, but to a lesser extent | Number of Nkx6.1+ progenitor cells [2]: did not affect the number of Nkx6.1+ progenitor cells | Concentration at which toxicity is initiated (active caspase-3+ cells) ([2]; mouse, E11.5 mouse brain primary cultures, 3 days): 1000 nM | Number of Islet1+ cells ([2]; wild type cultures): caused the loss of Islet1+ cells in the cultures | Number of active caspase-3+ cells ([2]; wt cultures): increased the number of active caspase-3+ cells | Toxicity to zebrafish embryos ([3]; 10 μM in medium): deleterious toxic effect which impaired the survival of the fish | Lxrβ activation, luciferase activity (Lxrβ): activates Lxr | Lxrβ activational capacity in combination with 22R-HC (Lxrβ): No additive effect was observed
